Key:
[1] = tested on: hypotension induced by PAF; assay: Inhibition of the Hypotensive Effect Induced by PAF in Normotense Rats; assay type: in vivo, Male Sprage Dawley rats; settings: Rattus norvegicus, iv, anesthetized, compound i.v. 3 min before PAF 0.5 mcg/Kg i.v., average arterial pressure, read-out: CI50 (inhibition of PAF-induced hypotension)
Experimental: Male Sprage Dawley rats, of 180-220 g of weight, anesthetized with sodium pentobarbital (50 mg/Kg, i.p. 1 mL/100 g) have been used. In order to measure the average arterial pressure, a polyethylene catheter is introduced into the carotid artery. The arterial pressure is recorded with the help of a transducer connected with a R611 Beckman polygraph. The tested compounds are administered through the femoral vein 3 min before the injection of PAF (0.5 mcg/Kg, i.v.).

[2] = tested on: platelet aggregation induced by PAF; assay: Inhibition of Platelet Aggregation Induced by PAF (Born nephelometric technique, rabbit platelet rich plasma); assay type: cell-based, male New Zealand albino rabbits; settings: PAF (C18) 16 nM final
Experimental: The blood is obtained by cardiac puncture of male New Zealand albino rabbits (between 2 and 2.5 Kg of weight) and coagulation is prevented by adding 1 part of 3.16% sodium citrate dihydrate in 9 parts of blood. The platelet rich plasma (PRP) is prepared by blood centrifugation at 250×g for 10 min. at 4° C. and it is diluted with platelet poor plasma (PPP) by additional centrifugation at 3000×g for 10 min. The amount of platelets is adjusted to 3×10^-5 /mm^3. the platelet aggregation induced by PAF (C18; prepared in our laboratory) (16 nM, final) is determined by the Born nephelometric technique (J. Physiol., 1962, 162, 67) using a aggregometer Chrono-log 500. The activities of the inhibitors are expressed as IC50, that is to say the concentration of the drug needed to inhibit the platelet aggregation by 50%.

[3] = Oryctolagus cuniculus, Platelet

SMILES	IC50 [2, 3]	IC50 [2]	ED50 [1]
CC[n+]1ccccc1CN(C(C)=O)C(=O)OCCOCCOC(=O)C(C)(C)C.[I-] [Compound 9, 2-(N-Acetyl-N-((2-(2-pivaloyloxyethoxy)ethoxy)carbonyl)aminomethyl)-1-ethylpyridinium iodide]	1500 nM	–	5 mg/kg
CCCCCCCCCCCCCCCCCNC(=O)OCCOCCOC(=O)NCc1cccc[n+]1CC.[I-] [Compound 13, 2-(N-((2-(2-(Heptadecylcarbamoyloxy)ethoxy)ethoxy)carbonyl)aminomethyl)-1-ethylpyridinium iodide]	1600 nM	–	0.5 mg/kg
CCCCCCCCCCCCCCCCCNC(=O)OCCOCCOC(=O)N(Cc1cccc[n+]1C)C(C)=O.[I-] [Compound 14, 2-(N-Acetyl-N-((2-(2-(heptadecylcarbamoyloxy)ethoxy)ethoxy)carbonyl)aminomethyl)-1-methylpyridinium iodide]	54 nM	–	0.13 mg/kg
CCCCCCCCCCCCCCCNC(=O)OCCOCCOC(=O)N(Cc1cccc[n+]1CCC)C(C)=O.[I-] [Compound 20, 2-(N-Acetyl-N-((2-(2-(pentadecylcarbamoyloxy)ethoxy)ethoxy)carbonyl)aminomethyl)-1-propylpyridinium iodide]	220 nM	–	0.68 mg/kg
CCCCCCCCCCCCCCCNC(=O)OCCCCCOC(=O)N(Cc1cccc[n+]1CC)C(C)=O.[I-] [Compound 31, 2-(N-Acetyl-N-((5-(pentadecylcarbamoyloxy)pentoxy)carbonyl)aminomethyl)-1-ethylpyridinium iodide]	32 nM	–	0.057 mg/kg
CC[n+]1ccccc1CN(C(C)=O)C(=O)OCCOCCOC(=O)NCCCc1ccccc1.[I-] [Compound 40, 2-(N-Acetyl-N-((2-(2-(3-phenylpropylcarbamoyloxy)ethoxy)ethoxy)carbonyl)aminomethyl)-1-ethylpyridinium iodide]	1200 nM	–	0.88 mg/kg
CC[n+]1ccccc1CN(C(C)=O)C(=O)OCCOCCOC(=O)NCC1CCCCC1.[I-] [Compound 43, 2-(N-Acetyl-N-((2-(2-(cyclohexylmethylcarbamoyloxy)ethoxy)ethoxy)carbonyl)aminomethyl)-1-ethylpyridinium iodide]	2000 nM	–	0.5 mg/kg
CCCCCCCCCCCCCCCCCNC(=O)OCCSCCOC(=O)N(Cc1cccc[n+]1CC)C(C)=O.[I-] [Compound 62, 2-(N-Acetyl-N-((2-(2-(heptadecylcarbamoyloxy)ethylthio)ethoxy)carbonyl)aminomethyl)-1-ethylpyridinium iodide]	–	4.4 nM	0.013 mg/kg
CCCCCCCCCCCCCCCCCNC(=O)OCCSCCOC(=O)N(Cc1cccc[n+]1CC)C(C)=O.[Cl-] [Compound 63, 2-(N-Acetyl-N-((2-(2-(heptadecylcarbamoyloxy)ethylthio)ethoxy)carbonyl)aminomethyl)-1-ethylpyridinium chloride]	–	12 nM	0.018 mg/kg

Second part, led by results:

IC50 [2, 3]	IC50 [2]	SMILES	ED50 [1]
19 nM	–	CCCCCCCCCCCCCCCCCCOCCOCCOC(=O)N(Cc1cccc[n+]1CC)C(C)=O.[I-] [Compound 3, 2-(N-Acetyl-N-((2-(2-octadecyloxyethoxy)ethoxy)carbonyl)aminomethyl)-1-ethylpyridinium iodide]	0.022 mg/kg
27 nM	–	CCCCCCCCCCCCCCCCCNC(=O)OCCOCCOC(=O)N(Cc1cccc[n+]1CC)C(C)=O [Compound 12, 2-(N-Acetyl-N-((2-(2-heptadecylcarbamoyloxy)ethoxy)ethoxy)carbonyl)aminomethyl)-1-ethylpyridium chloride]	0.067 mg/kg
12 nM	–	CCCCCCCCCCCCCCCCCNC(=O)OCCOCCOC(=O)N(Cc1cccc[n+]1CC)C(=O)OCC.[I-] [Compound 16, 2-(N-Ethoxycarbonyl-N-((2-(2-(heptadecylcarbamoyloxy)ethoxy)ethoxy)carbonyl)aminomethyl)-1-ethylpyridinium iodide]	0.021 mg/kg
19 nM	–	CCCCCCCCCCCCCCCNC(=O)OCCOCCOC(=O)N(Cc1cccc[n+]1CC)C(C)=O.[I-] [Compound 19, 2-(N-Acetyl-N-((2-(2-(pentadecylcarbamoyloxy)ethoxy)ethoxy)carbonyl)aminomethyl)-1-ethylpyridinium iodide]	0.041 mg/kg
27 nM	–	CCCCCCCCCCCCCCCNC(=O)OCCOCCOC(=O)N(Cc1cccc[n+]1CC)C(=O)OCC.[I-] [Compound 22, 2-(N-Ethoxycarbonyl-N-((2-(2-(pentadecylcarbamoyloxy)ethoxy)ethoxy)carbonyl)aminomethyl)-1-ethylpyridinium iodide]	0.032 mg/kg
51 nM	–	CCCCCCCCCCCCCCCNC(=O)OCCOCCOC(=O)N(Cc1cccc[n+]1CC)C(=O)OCC(C)C.[Cl-] [Compound 25, 2-(N-Isobutyloxycarbonyl-N-((2-(2-(pentadecylcarbamoyloxy)ethoxy)ethoxy)carbonyl)aminomethyl)-1-ethylpyridinium chloride]	0.064 mg/kg
6.8 nM	–	CCCCCCCCCCCCCCCNC(=O)OCCSCCOC(=O)N(Cc1cccc[n+]1CC)C(C)=O.[I-] [Compound 37, 2-(N-Acetyl-N-((2-(2-(pentadecylcarbamoyloxy)ethylthio)ethoxy)carbonyl)aminomethyl)-1-ethylpyridinium iodide]	0.044 mg/kg
12 nM	–	CCCCCCCCCCCCCCCNC(=O)OCCOCCOCCOC(=O)N(Cc1cccc[n+]1CC)C(C)=O.[I-] [Compound 46, 2-(N-Acetyl-N-((2-(2-(2-(pentadecylcarbamoyloxy)ethoxy)ethoxy)ethoxy)carbonyl)aminomethyl)-1-ethylpyridinium iodide]	0.028 mg/kg
4.4 nM	–	CCCCCCCCCCCCCCCCOCCSCCOC(=O)N(Cc1cccc[n+]1CC)C(C)=O.[I-] [Compound 66, 2-(N-Acetyl-N-((2-(2-hexadecyloxyethylthio)ethoxy)carbonyl)aminomethyl)-1-ethylpyridinium iodide]	0.014 mg/kg
15 nM	–	CCCCCCCCCCCCCCCCCCOCCSCCOC(=O)N(Cc1cccc[n+]1CC)C(C)=O [Compound 69, 2-(N-Acetyl-N-((2-(2-octadecyloxyethylthio)ethoxy)carbonyl)aminomethyl)-1-ethylpyridinium idodide]	0.016 mg/kg
